According to PubChem BioAssay AID1347 (Sanford-Burnham Center for Chemical Genomics, 2008):
Activity calls are given as the source filed them.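 Rule for the calls: active = survival repeatably raised 25 points above the stressor-only control level of 35%, about 60% survival; inactive = the rest.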

System: differentiated CSM14.1, thapsigargin death rescue, ATPlite, 24 h
Test: ER stress death protection in CSM14.1 neurons – cell-based, differentiated CSM14.1, ATP luminescence, SAR follow-up (AID 1347)
Settings: at 25 µM; active compounds read high

First: COc1ccc(C2CC(=O)C3=C(C2)Nc2ccccc2NC3c2ccccc2C(F)(F)F)cc1OC (stereo unspecified)
Second: COc1ccc(C2CC(=O)C3=C(C2)Nc2ccccc2NC3c2cccc(C(F)(F)F)c2)cc1OC (stereo unspecified)
The survival of the first is higher: 68% for the first, 65% for the second.

First: CC1(C)CC(=O)C2=C(C1)Nc1ccccc1NC2c1ccc(-c2ccccc2)cc1 (stereo unspecified)
Second: CSc1ccc(C2Nc3ccccc3NC3=C2C(=O)CC(c2ccccc2)C3)cc1 (stereo unspecified)
The survival of the first is lower: 47% for the first, 65% for the second.

Going from COc1ccc(C2CC(=O)C3=C(C2)Nc2ccccc2NC3c2cc(C)ccc2C)cc1 (stereo unspecified) to CCOc1cccc(C2Nc3ccccc3NC3=C2C(=O)CC(c2ccc(OC)cc2)C3)c1 (stereo unspecified), the survival falls from 69% to 64%.

Compared with COc1ccc(C2CC(=O)C3=C(C2)Nc2ccccc2NC3c2cccc(Br)c2)cc1OC (stereo unspecified), COc1ccc(C2CC(=O)C3=C(C2)Nc2ccccc2NC3c2cccc(Oc3ccccc3)c2)cc1OC (stereo unspecified) is higher in survival: 63% for the first, 66% for the second.

CCCOc1ccc(C2Nc3ccccc3NC3=C2C(=O)CC(c2ccc(OC)c(OC)c2)C3)cc1 (stereo unspecified) was tested, and the survival was 68%.

With O=C1CC(c2ccccc2)CC2=C1C(c1c(F)cccc1Cl)Nc1ccccc1N2 (stereo unspecified) the survival was 10% (inactive).
For CCOc1cc(C2Nc3ccccc3NC3=C2C(=O)CC(c2ccc(OC)cc2)C3)cc(Cl)c1O (stereo unspecified), the survival was 20% (inactive).
